Measured values as given in ChEMBL document CHEMBL4622974, “Leveraging an Open Science Drug Discovery Model to Develop CNS-Penetrant ALK2 Inhibitors for the Treatment of Diffuse Intrinsic Pontine Glioma” (J Med Chem, 2020).

Columns and labels:
Activin receptor type-1 [1] = biological target: T1, Activin receptor type-1 (Homo sapiens, UniProt Q04771); test: Inhibition of human ALK2 using casein as substrate in presence of [gamma-33P]-ATP by radiometric hotspot assay
T1 sequence (Q04771 whole entry): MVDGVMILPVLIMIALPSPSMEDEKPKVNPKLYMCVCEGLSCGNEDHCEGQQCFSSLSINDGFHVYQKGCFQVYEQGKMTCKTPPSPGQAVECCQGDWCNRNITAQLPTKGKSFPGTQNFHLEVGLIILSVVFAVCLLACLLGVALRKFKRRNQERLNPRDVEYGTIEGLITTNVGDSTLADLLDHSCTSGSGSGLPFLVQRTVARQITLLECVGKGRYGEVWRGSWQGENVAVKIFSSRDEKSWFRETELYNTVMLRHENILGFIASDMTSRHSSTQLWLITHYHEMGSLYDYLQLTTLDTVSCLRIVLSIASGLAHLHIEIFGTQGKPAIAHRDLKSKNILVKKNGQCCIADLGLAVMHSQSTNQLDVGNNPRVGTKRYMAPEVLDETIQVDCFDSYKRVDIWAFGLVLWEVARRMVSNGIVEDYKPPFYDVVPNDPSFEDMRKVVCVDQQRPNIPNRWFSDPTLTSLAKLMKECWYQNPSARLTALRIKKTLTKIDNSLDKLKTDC

TGF-beta receptor type-1 [2] = biological target: T2, TGF-beta receptor type-1 (Homo sapiens, UniProt P36897); test: Inhibition of human ALK5 using casein as substrate in presence of [gamma-33P]-ATP by radiometric hotspot assay; assay type: ADME
T2 sequence (P36897 whole entry): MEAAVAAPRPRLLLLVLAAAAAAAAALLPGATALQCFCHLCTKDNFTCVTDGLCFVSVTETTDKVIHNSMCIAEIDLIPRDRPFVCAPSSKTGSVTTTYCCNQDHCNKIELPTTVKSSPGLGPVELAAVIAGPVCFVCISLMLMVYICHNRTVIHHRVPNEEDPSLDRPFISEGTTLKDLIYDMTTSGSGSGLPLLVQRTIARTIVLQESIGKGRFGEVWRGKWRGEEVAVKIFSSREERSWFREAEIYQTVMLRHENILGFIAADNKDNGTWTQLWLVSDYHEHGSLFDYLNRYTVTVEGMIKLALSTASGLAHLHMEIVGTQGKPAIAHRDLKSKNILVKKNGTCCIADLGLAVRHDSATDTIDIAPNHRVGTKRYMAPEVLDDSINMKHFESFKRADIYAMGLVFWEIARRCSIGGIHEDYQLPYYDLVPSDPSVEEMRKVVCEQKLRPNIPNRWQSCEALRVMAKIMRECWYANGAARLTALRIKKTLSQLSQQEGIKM

Activin receptor type-1 [3] = biological target: T1, Activin receptor type-1; test: Competitive displacement of PBI-6908 from nanoluciferase-fused ALK2 (unknown origin) expressed in HEK293 cells incubated for 2 hrs by NanoBRET NanoGlo substrate based NanoBRET assay; assay type: cell-based
TGF-beta receptor type-1 [4] = biological target: T2, TGF-beta receptor type-1; test: Inhibition of recombinant human ALK5 expressed in HEK293 cells transfected with CAGA-luciferase and Renilla luciferase reporter after 24 hrs by dual luciferase reporter assay; assay type: cell-based
[5] = biological target: Voltage-gated inwardly rectifying potassium channel KCNH2 (Homo sapiens, UniProt Q12809); test: Inhibition of human ERG expressed in HEK293 cells after 5 mins by IonWorks barracuda patch clamp method; assay type: cell-based
[6] = Selectivity ratio of IC50 for human ALK4 to IC50 for human ALK2; assay type: ADME
Activin receptor type-1B = biological target: T3, Activin receptor type-1B (Homo sapiens, UniProt P36896); test: Inhibition of human ALK4 using casein as substrate in presence of [gamma-33P]-ATP by radiometric hotspot assay; assay type: ADME
T3 sequence (P36896 whole entry): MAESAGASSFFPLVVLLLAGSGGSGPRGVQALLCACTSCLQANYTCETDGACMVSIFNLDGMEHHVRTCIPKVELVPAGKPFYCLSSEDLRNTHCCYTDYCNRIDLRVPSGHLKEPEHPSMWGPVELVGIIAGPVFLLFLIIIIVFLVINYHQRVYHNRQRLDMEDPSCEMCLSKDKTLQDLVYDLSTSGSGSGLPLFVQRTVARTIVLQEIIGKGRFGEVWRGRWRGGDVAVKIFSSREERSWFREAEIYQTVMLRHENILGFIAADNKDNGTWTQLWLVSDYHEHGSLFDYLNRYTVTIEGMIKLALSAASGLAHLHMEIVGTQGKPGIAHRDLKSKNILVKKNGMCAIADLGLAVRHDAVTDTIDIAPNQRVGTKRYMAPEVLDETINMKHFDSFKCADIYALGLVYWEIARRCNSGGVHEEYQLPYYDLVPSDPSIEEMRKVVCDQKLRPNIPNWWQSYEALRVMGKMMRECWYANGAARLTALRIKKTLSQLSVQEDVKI

Sequence of Voltage-gated inwardly rectifying potassium channel KCNH2 (Q12809 whole entry): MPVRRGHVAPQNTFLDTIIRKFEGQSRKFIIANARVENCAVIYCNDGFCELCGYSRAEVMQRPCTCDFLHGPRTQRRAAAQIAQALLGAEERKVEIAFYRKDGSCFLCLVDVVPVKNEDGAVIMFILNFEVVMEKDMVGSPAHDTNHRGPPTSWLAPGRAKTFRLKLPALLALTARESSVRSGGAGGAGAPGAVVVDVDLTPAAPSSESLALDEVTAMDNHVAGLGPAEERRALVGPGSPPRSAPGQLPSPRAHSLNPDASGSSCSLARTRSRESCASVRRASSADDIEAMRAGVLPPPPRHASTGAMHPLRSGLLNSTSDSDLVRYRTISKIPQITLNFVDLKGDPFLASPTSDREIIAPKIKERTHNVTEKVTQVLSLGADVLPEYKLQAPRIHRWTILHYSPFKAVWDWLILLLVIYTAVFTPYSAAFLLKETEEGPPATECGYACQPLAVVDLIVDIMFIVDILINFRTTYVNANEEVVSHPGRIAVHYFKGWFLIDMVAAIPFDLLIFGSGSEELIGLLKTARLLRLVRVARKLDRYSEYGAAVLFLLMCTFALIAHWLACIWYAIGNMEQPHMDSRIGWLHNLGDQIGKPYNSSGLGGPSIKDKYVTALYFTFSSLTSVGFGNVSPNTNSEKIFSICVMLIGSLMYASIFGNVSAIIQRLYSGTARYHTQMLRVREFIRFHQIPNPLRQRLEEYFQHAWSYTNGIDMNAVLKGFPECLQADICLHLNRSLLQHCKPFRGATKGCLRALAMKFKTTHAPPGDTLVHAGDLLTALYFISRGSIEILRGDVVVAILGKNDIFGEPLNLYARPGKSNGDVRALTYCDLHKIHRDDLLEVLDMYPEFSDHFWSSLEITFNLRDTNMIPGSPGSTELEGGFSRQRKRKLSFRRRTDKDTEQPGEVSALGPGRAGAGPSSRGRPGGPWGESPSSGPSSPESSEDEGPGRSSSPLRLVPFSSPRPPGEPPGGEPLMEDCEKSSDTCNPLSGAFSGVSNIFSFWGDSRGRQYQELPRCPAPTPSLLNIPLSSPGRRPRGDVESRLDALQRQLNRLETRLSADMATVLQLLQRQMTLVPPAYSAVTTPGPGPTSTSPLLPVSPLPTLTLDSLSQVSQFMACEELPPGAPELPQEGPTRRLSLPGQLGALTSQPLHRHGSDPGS

SMILES	IC50 (Activin receptor type-1 [1]) [nM]	IC50 (TGF-beta receptor type-1 [2]) [nM]	IC50 (Activin receptor type-1 [3]) [nM]	IC50 (TGF-beta receptor type-1 [4]) [nM]	IC50 [5] [nM]	Ratio IC50 [6]	IC50 (Activin receptor type-1B) [nM]
COc1cc(-c2cncc(-c3ccc(N4C[C@@H](C)N[C@@H](C)C4)cc3)c2C)cc(OC)c1OC	8	1050	40	1430	5900	–	–
COc1cc(-c2cncc(-c3ccc(CN4CCN(C)CC4)cc3)c2C)cc(OC)c1OC	20	2640	108	> 5000	–	–	–
COc1cc(-c2cncc(-c3ccc(N4CCN(C(=O)N(C)C)CC4)cc3)c2C)cc(OC)c1OC	4	> 5000	149	> 5000	–	–	–
COc1cc(-c2cncc(-c3ccc(N4CCN(C)CC4)cc3)c2C)cc(OC)c1OC	9	4850	56	> 5000	–	–	–
COc1cc(-c2cncc(-c3ccc(N4CCNCC4)cc3)c2)cc(OC)c1OC	–	–	–	–	–	36	462
COc1cc(-c2cncc(-c3ccc(C4=CCN(C)CC4)cc3)c2C)cc(OC)c1OC	14	2520	102	7800	–	–	–
COc1cc(-c2cncc(-c3ccc(N4CCNCC4)cc3)c2OC)cc(OC)c1OC	103	> 5000	233	> 5000	–	–	–
COc1cc(-c2cncc(-c3ccc(N4CCNCC4)cc3)c2C(F)(F)F)cc(OC)c1OC	67	> 5000	184	> 5000	–	–	–
COc1cc(-c2cncc(-c3ccc(N4CCN(C(C)=O)CC4)cc3)c2C)cc(OC)c1OC	22	2520	267	> 5000	–	–	–
COc1cc(-c2cncc(-c3ccc(N4CCOCC4)cc3)c2C)cc(OC)c1OC	28	2360	334	> 5000	–	–	–
COc1cc(-c2cncc(-c3ccc(N4CCNCC4)cc3)c2Cl)cc(OC)c1OC	16	1330	57	9450	2700	60	962
COc1cc(OC)cc(-c2cncc(-c3ccc(N4CCNCC4)cc3)c2C)c1	39	> 5000	440	> 5000	–	–	–
COc1cc(-c2cncc(-c3ccc(N4CCS(=O)(=O)CC4)cc3)c2C)cc(OC)c1OC	16	1230	169	> 5000	–	–	–
